{"source": "patent US20260108526A1", "about": "“BIOMARKER FOR TREATMENT OF SOLID CANCER WITH IMIDAZO[4,5-b]PYRIDINE DERIVATIVE” (CHORDIA THERAPEUTICS INC., priority 2022, published 2026)", "key": {"[1]": {"system": "3T3 cells with MYCC WT, Q37del or S146L introduced (comparative control GFP or KRASG12D)", "test": "Drug sensitivity evaluation by MANO method, 3T3 cells with cancer-related genes introduced", "type": "cell-based, mouse", "settings": "versus GFP or KRASG12D", "procedure": "The present evaluation was carried out as follows with a conventional procedure of the MANO method described in International Publication No. WO 2018/181863.\nHEK (Human Embryonic Kidney) 293 cells and mouse 3T3 fibroblasts were obtained from ATCC (American Type Culture Collection), and maintained with Dulbecco's modified Eagle's medium F-12 (DMEM-F12) supplemented with 10% FBS (both from Thermo Fisher Scientific, Walthman, MA). […]\nThe recombinant plasmid prepared as above was introduced into HEK293 cells together with a packaging plasmid (Takara Bio Inc., Shiga, Japan), giving recombinant retroviral particles. […] The transformation of the cells was evaluated by phase-contrast microscopy or staining with Giemsa solution. […]\nThe PCR product after amplification was purified with AMPurebeads (Beckman Coulter, Inc., Brea, CA). […] The quality of the library was evaluated with a Qubit 2.0 Fluorometer (Thermo Fisher Scientific) and an Agilent2200 Tape Station system. The library was sequenced by using an Illumina MiSeq (300 cycles) with a Reagent Kit V2 to produce paired-end reads of 150 bp. These sequence reads included the following sequence containing the barcode sequence: 5′-[…]-3′ (wherein N represents any nucleotide) and the complementary sequence. The amount of each mutant was estimated by counting the number of reads for the barcode sequence. […]"}, "[2]": {"system": "NCC_J-PDX_0009TG4 (gastric cancer)", "test": "Mouse subcutaneous transplantation model with human-cancer-patient-derived tumor", "type": "in vivo", "settings": "NCC_J-PDX_0009TG4, MYCC CNV 3; oral 25 mg/kg twice daily, twice a week; day 14 or 28", "text": "(§1) Among mouse subcutaneous transplantation models with different human-cancer-patient-derived tumors, which had been established by National Cancer Center Research Institute, seven models in total with five cancer species of ovarian cancer, lung cancer, gastric cancer, breast cancer, and large intestine cancer, were used for examination in the present test. For these models, results of measurement of MYCC gene amplification have been obtained by National Cancer Center Research Institute.\n(§2) A tumor piece in the form of a 2- to 3-mm cube was subcutaneously transplanted into the abdomen of each 6- to 11-week-old female NOG mouse. Calipers were used in measuring tumor volume, which was calculated from the calculation formula: tumor volume=(tumor major axis×tumor minor axis×tumor minor axis)/2. When the tumor volumes reached approximately 140 to 230 mm^3, the mice were grouped into two groups each consisting of two to four mice. Compound A was orally administered in an intermittent manner according to a schedule in which a twice-daily dose of 25 mg/kg was administered twice a week for 14 or 28 days. To a control group, 0.5% methylcellulose solution was orally administered. After the grouping, measurement of tumor volume was performed twice a week. T/C (%) on day 14 or 28 was used as an index of antitumor effect."}, "[3]": {"system": "NCC_J-PDX_0034TG4 (non-small-cell lung cancer)", "test": "Mouse subcutaneous transplantation model with human-cancer-patient-derived tumor", "type": "in vivo", "settings": "NCC_J-PDX_0034TG4, MYCC CNV 2; oral 25 mg/kg twice daily, twice a week; day 14 or 28", "text": "as §1, §2"}, "[4]": {"system": "NCC_J-PDX_0189TG4 (non-small-cell lung cancer)", "test": "Mouse subcutaneous transplantation model with human-cancer-patient-derived tumor", "type": "in vivo", "settings": "NCC_J-PDX_0189TG4, MYCC CNV 4; oral 25 mg/kg twice daily, twice a week; day 14 or 28", "text": "as §1, §2"}, "[5]": {"system": "NCC_J-PDX_0293TG5 (large intestine cancer)", "test": "Mouse subcutaneous transplantation model with human-cancer-patient-derived tumor", "type": "in vivo", "settings": "NCC_J-PDX_0293TG5, MYCC CNV 2; oral 25 mg/kg twice daily, twice a week; day 14 or 28", "text": "as §1, §2"}, "[6]": {"system": "NCC_J-PDX_0569TG5 (ovarian cancer)", "test": "Mouse subcutaneous transplantation model with human-cancer-patient-derived tumor", "type": "in vivo", "settings": "NCC_J-PDX_0569TG5, MYCC CNV 8; oral 25 mg/kg twice daily, twice a week; day 14 or 28", "text": "as §1, §2"}, "[7]": {"system": "mouse-derived tumor BTG-R502 having MMTV-HRAS", "test": "Mouse subcutaneous transplantation model, MMTV-HRAS", "type": "in vivo", "settings": "twice a week, day 14", "procedure": "A tumor piece of the mouse-derived tumor BTG-M605 having MMTV-MYCC or the mouse-derived tumor BTG-R502 having MMTV-HRAS (both from Shanghai Medicilon Inc.) was subcutaneously transplanted into the abdomen of each female nude mouse. Calipers were used in measuring tumor volume, which was calculated from the calculation formula: tumor volume=(tumor major axis×tumor minor axis×tumor minor axis)/2. When the tumor volumes reached approximately 180 mm^3, the mice were grouped into four groups each consisting of eight mice. Compound A was orally administered in an intermittent manner according to a schedule in which a twice-daily dose of 12.5, 25, or 50 mg/kg was administered twice a week (on days 0, 4, 7, and 11) for 14 days. To a control group, 0.5% methylcellulose solution was orally administered. After the grouping, measurement of tumor volume was performed twice a week. T/C (%) on day 14 was used as an index of antitumor effect."}}, "data": [{"compound": "COc1ncnn2ccc(-c3cnc4nc(C)n(Cc5nnc([C@@H](C)F)o5)c4c3)c12", "note": "[compound A]", "values": [{"measurement": "growth-inhibitory effect (IC90 lower than comparative control)", "setting": "[1]", "result": "particularly strong growth-inhibitory effect"}, {"measurement": "T/C(%)", "setting": "[2]", "result": "−44.3", "unit": "%"}, {"measurement": "T/C(%)", "setting": "[3]", "result": "−9.9", "unit": "%"}, {"measurement": "T/C(%)", "setting": "[4]", "result": "−28.0", "unit": "%"}, {"measurement": "T/C(%)", "setting": "[5]", "result": "−26.1", "unit": "%"}, {"measurement": "T/C(%)", "setting": "[6]", "result": "−71.1", "unit": "%"}, {"measurement": "T/C(%)", "setting": "[7]; oral 12.5 mg/kg twice daily", "result": 71.1, "unit": "%"}, {"measurement": "T/C(%)", "setting": "[7]; oral 25 mg/kg twice daily", "result": 54.4, "unit": "%"}, {"measurement": "T/C(%)", "setting": "[7]; oral 50 mg/kg twice daily", "result": 14.4, "unit": "%"}]}]}
